{"source": "paper PMC5427163", "about": "“Simple and cost-effective liquid chromatography-mass spectrometry method to measure dabrafenib quantitatively and six metabolites semi-quantitatively in human plasma” (Analytical and Bioanalytical Chemistry, 2017)", "key": {"[1]": {"assay": "LC-MS/MS measurement of dabrafenib and metabolites in patient plasma at steady state", "type": "in vivo, human", "details": "for Plasma concentration in typical patient sample: Fig. 3, single patient sample; for Diff (difference between the highest and lowest concentrations) / Median C (plasma concentration) / Range of plasma concentration: patient plasma, steady state, dabrafenib 150 mg BID orally", "method": "Seven blood samples were obtained between 14 and 17 h after last dose from four different patients with disseminated melanoma after 1, 2, or 3 months of treatment with dabrafenib at the full recommended dose of 150 mg BID orally. […] Plasma was collected after centrifugation, immediately frozen, and stored at −80 °C until analysis. The study protocol was approved by the Ethical Review Board in Stockholm (DNR 2011/1980-31/1) and written informed consent was obtained from patients prior to study entry. Drug-free ethylenediaminetetraacetic acid (EDTA) plasma was donated from six volunteers (three males and three females) with an average age of 26 (22–30) years.\nFifty microliters aliquots of plasma was thawed and precipitated with 200 μL of internal standard mixture containing erlotinib-d6 (200 ng/mL) in acetonitrile. Following vortex mixing, the samples were centrifuged (17530 RCF, 5 min, 4 °C). The supernatant (150 μL) was mixed with 150 μL water and transferred to a 0.7-mL 96-well plate.\nCalibration standards for dabrafenib were prepared at seven levels in the concentration range 5–5000 ng/mL (5-15-60-250-1000-3750-5000) by diluting the corresponding working stock solutions 1:10 with drug-free plasma. The upper limit of quantification (ULOQ) was selected based on the highest expected dabrafenib concentration, and the lower limit of quantification (LLOQ) was selected based on observed carry-over from the ULOQ. LOD was not determined as LLOQ was limited by the carry-over. QC samples were prepared separately from the calibration standards at four levels (LLOQ-low-medium-high, 5-15-250-3750 ng/ml).\nDue to the lack of reference materials, the six metabolites were semi-quantitatively determined using the calibration curve for dabrafenib. The bias caused by, among other things, differences in recovery and ionization efficiency was not corrected for. This bias is indicated by the addition of an asterisk to the units of metabolite concentrations."}, "[2]": {"details": "cited from earlier work; for Variation of plasma concentration during a 12-h period: after a 150-mg dose of dabrafenib at steady state (day 15)"}, "BRAFV600E": {"system": "BRAFV600E", "set-up": "method as in earlier work", "details": "cited from earlier work"}, "[3]": {"assay": "Stability of dabrafenib in spiked whole blood, plasma and processed samples", "type": "in vitro ADME, human", "details": "for Concentration relative to nominal concentration (Rel): long term, −80 °C for 16 months", "method": "Stability was evaluated at the low and high QC levels. Processed sample stability by re-injection of calibration and QC samples after 24 h at 5 °C. Freeze-thaw stability (n = 3) was determined for three freeze-thaw cycles at −80 °C. Short-term stability of dabrafenib was investigated in whole blood and plasma using spiked drug-free plasma (n = 2) stored at room temperature or 5 °C for 0, 24, 48, and 72 h, respectively. Long-term stability of dabrafenib (QC low, QC middle, and QC high; n = 3) was determined for a sample stored at −80 °C for 16 months. Accuracy within ±15% of the nominal value was required to consider dabrafenib stable under all conditions."}, "[4]": {"assay": "Stability of dabrafenib in spiked whole blood, plasma and processed samples", "type": "in vitro ADME, human", "details": "72 h 4°C"}, "[5]": {"set-up": "method as in PMID 22735384", "details": "phase III trial; cited from earlier work"}, "[6]": {"assay": "Clinical pharmacokinetics of dabrafenib (literature)", "type": "in vivo, human", "details": "plasma"}, "[7]": {"details": "semi-quantification based on the calibration curve of dabrafenib"}, "[8]": {"details": "14-17 h after last dose, semi-quantification based on the calibration curve of dabrafenib"}}, "note": "Marks after values point to notes of the source that are not given here."}
{"smiles": "CC(C)c1nc(-c2cccc(NS(=O)(=O)c3c(F)cccc3F)c2F)c(-c2ccnc(N)n2)s1", "note": "[Desmethyl-Dab, desmethyl-dabrafenib]", "values": [{"measurement": "Plasma concentration in typical patient sample", "setting": "[1]; [7]", "result": 660, "unit": "ng/mL"}, {"measurement": "Diff (difference between the highest and lowest concentrations)", "setting": "[1]", "result": "4-fold"}, {"measurement": "Median C (plasma concentration)", "setting": "[1]; [8]", "result": "400^a ng/ml"}, {"measurement": "Range of plasma concentration", "setting": "[1]; [7]", "result": "(170–660) ng/ml"}, {"measurement": "Variation of plasma concentration during a 12-h period", "setting": "[2]", "result": "around 1.5 fold"}, {"measurement": "IC50 relative to dabrafenib (fold higher)", "setting": "BRAFV600E", "result": "~2", "unit": "fold"}]}
{"smiles": "CC(C)(C)c1nc(-c2cccc(NS(=O)(=O)c3c(F)cccc3F)c2F)c(-c2ccnc(N)n2)s1", "note": "[Dabrafenib]", "values": [{"measurement": "Long-term stability in plasma", "setting": "[3]; 16 months of storage at −80 °C", "result": "stable"}, {"measurement": "Stability of processed samples", "setting": "[3]; 24 h at 5 °C, stable = accuracy within ±15% of nominal", "result": "stable"}, {"measurement": "Short-term stability in whole blood or plasma", "setting": "[3]; 72 h at room temperature and at 5 °C, stable = accuracy within ±15% of nominal", "result": "stable"}, {"measurement": "Concentration relative to initial sample concentration (Rel)", "setting": "[3]; plasma, High QC, 72 h 4°C", "result": 106, "unit": "%"}, {"measurement": "Concentration relative to initial sample concentration (Rel)", "setting": "[3]; plasma, High QC, 72 h RT", "result": 101, "unit": "%"}, {"measurement": "Concentration relative to nominal concentration (Rel)", "setting": "[3]; plasma, High QC", "result": 106, "unit": "%"}, {"measurement": "Concentration relative to initial sample concentration (Rel)", "setting": "[3]; plasma, High QC, three freeze-thaw cycles at −80 °C", "result": 96, "unit": "%"}, {"measurement": "Concentration relative to initial sample concentration (Rel)", "setting": "[3]; plasma, Low QC, 72 h RT", "result": 98, "unit": "%"}, {"measurement": "Concentration relative to nominal concentration (Rel)", "setting": "[3]; plasma, Low QC", "result": 101, "unit": "%"}, {"measurement": "Concentration relative to initial sample concentration (Rel)", "setting": "[3]; plasma, Low QC, three freeze-thaw cycles at −80 °C", "result": 98, "unit": "%"}, {"measurement": "Concentration relative to initial sample concentration (Rel)", "setting": "[3]; processed sample, High QC, 24 h 5°C", "result": 89, "unit": "%"}, {"measurement": "Concentration relative to initial sample concentration (Rel)", "setting": "[3]; processed sample, Low QC, 24 h 5°C", "result": 87, "unit": "%"}, {"measurement": "Freeze-thaw stability in plasma", "setting": "[3]; three freeze-thaw cycles", "result": "stable"}, {"measurement": "Concentration relative to initial sample concentration (Rel)", "setting": "[3]; whole blood, High QC, 72 h RT", "result": 95, "unit": "%"}, {"measurement": "Concentration relative to initial sample concentration (Rel)", "setting": "[3]; whole blood, Low QC, 72 h RT", "result": 94, "unit": "%"}, {"measurement": "Concentration relative to initial sample concentration (Rel)", "setting": "[4]; plasma, Low QC", "result": 109, "unit": "%"}, {"measurement": "Concentration relative to initial sample concentration (Rel)", "setting": "[4]; whole blood, High QC", "result": 99, "unit": "%"}, {"measurement": "Concentration relative to initial sample concentration (Rel)", "setting": "[4]; whole blood, Low QC", "result": 99, "unit": "%"}, {"measurement": "Patients with adverse events of grade 2 or greater", "setting": "[5]", "result": 53, "unit": "%"}, {"measurement": "Plasma concentration in lowest patient sample", "setting": "[1]; Fig. 2", "result": 75, "unit": "ng/mL"}, {"measurement": "Plasma concentration in typical patient sample", "setting": "[1]; quantitative", "result": 1400, "unit": "ng/mL"}, {"measurement": "Diff (difference between the highest and lowest concentrations)", "setting": "[1]", "result": "19-fold"}, {"measurement": "Median C (plasma concentration)", "setting": "[1]; 14-17 h after last dose, 7 samples from 4 patients, quantitative", "result": 400, "unit": "ng/mL"}, {"measurement": "Range of plasma concentration", "setting": "[1]; 14-17 h after last dose, quantitative", "result": "(75–1400) ng/ml"}, {"measurement": "Variation of plasma concentration during a 12-h period", "setting": "[2]", "result": 16, "unit": "fold"}, {"measurement": "Inter-patient coefficient of variation (CV) in maximum concentration at steady state", "setting": "[2]", "result": 73, "unit": "%"}, {"measurement": "Half-life", "setting": "[2]; patients", "result": 4.8, "unit": "h"}]}
{"smiles": "CCCS(=O)(=O)Nc1ccc(F)c(C(=O)c2c[nH]c3ncc(-c4ccc(Cl)cc4)cc23)c1F", "note": "[vemurafenib]", "values": [{"measurement": "Inter-patient variability", "setting": "[2]", "result": "30–60%"}]}
{"smiles": "CC(C)(CO)c1nc(-c2cccc(NS(=O)(=O)c3c(F)cccc3F)c2F)c(-c2ccnc(N)n2)s1", "note": "[Hydroxy-Dab, hydroxy-dabrafenib]", "values": [{"measurement": "Plasma concentration in typical patient sample", "setting": "[1]; [7]", "result": 280, "unit": "ng/mL"}, {"measurement": "Diff (difference between the highest and lowest concentrations)", "setting": "[1]", "result": "15-fold"}, {"measurement": "Median C (plasma concentration)", "setting": "[1]; [8]", "result": "74^a ng/ml"}, {"measurement": "Range of plasma concentration", "setting": "[1]; [7]", "result": "(19–278) ng/ml"}, {"measurement": "Variation of plasma concentration during a 12-h period", "setting": "[2]", "result": 7, "unit": "fold"}, {"measurement": "IC50 relative to dabrafenib (fold higher)", "setting": "BRAFV600E", "result": "approximately 3 fold"}]}
{"smiles": "C=C(C)c1nc(-c2cccc(NS(=O)(=O)c3c(F)cccc3F)c2F)c(-c2ccnc(N)n2)s1", "note": "[M31]", "values": [{"measurement": "Plasma concentration in typical patient sample", "setting": "[1]; [7]", "result": 550, "unit": "ng/mL"}, {"measurement": "Diff (difference between the highest and lowest concentrations)", "setting": "[1]", "result": "4-fold"}, {"measurement": "Median C (plasma concentration)", "setting": "[1]; [8]", "result": "400^a ng/ml"}, {"measurement": "Range of plasma concentration", "setting": "[1]; [7]", "result": "(160–590) ng/ml"}]}
{"smiles": "C=C(COC1OC(C(=O)O)C(O)C(O)C1O)c1nc(-c2cccc(NS(=O)(=O)c3c(F)cccc3F)c2F)c(-c2ccnc(N)n2)s1", "note": "(stereo not drawn) [Gluc met]", "values": [{"measurement": "Plasma concentration in typical patient sample", "setting": "[1]; [7]", "result": 32, "unit": "ng/mL"}, {"measurement": "Diff (difference between the highest and lowest concentrations)", "setting": "[1]", "result": "3-fold"}, {"measurement": "Median C (plasma concentration)", "setting": "[1]; [8]", "result": "38^a ng/ml"}, {"measurement": "Range of plasma concentration", "setting": "[1]; [7]", "result": "(22–65)^b ng/ml"}]}
{"smiles": "CC(C)(C(=O)O)c1nc(-c2cccc(NS(=O)(=O)c3c(F)cccc3F)c2F)c(-c2ccnc(N)n2)s1", "note": "[Carboxy-Dab, carboxy-dabrafenib]", "values": [{"measurement": "Plasma concentration in typical patient sample", "setting": "[1]; [7]", "result": 400, "unit": "ng/mL"}, {"measurement": "Diff (difference between the highest and lowest concentrations)", "setting": "[1]", "result": "3-fold"}, {"measurement": "Median C (plasma concentration)", "setting": "[1]; [8]", "result": "450^a ng/ml"}, {"measurement": "Range of plasma concentration", "setting": "[1]; [7]", "result": "(230–690) ng/ml"}, {"measurement": "Variation of plasma concentration during a 12-h period", "setting": "[2]", "result": "around 1.5 fold"}, {"measurement": "Concentration reported by Falchook et al. relative to this study (fold higher)", "setting": "[6]", "result": 8, "unit": "fold"}]}
